Results taken from US12599672B2, “KRAS proteolysis targeting chimeras” (PAQ Therapeutics Inc., priority 2023, dated 2026).

Assays:
Type in all cases: cell-based
KRAS G12V = target: T1, KRAS G12V (Homo sapiens, UniProt P01116, G12V); experiment: KRAS G12V HiBit assay; settings: SW620-KRAS (G12V)-HiBit-KI cells, compound treatment for 24 hours, class symbols
T1 construct: SW620-KRAS (G12V)-HiBit-KI cell (Pharmaron); host or cells: SW620-KRAS (G12V)-HiBit-KI cells (HiBiT knock-in at the endogenous KRAS locus)
T1 sequence (P01116 1-188 isoform P01116-2 G12V): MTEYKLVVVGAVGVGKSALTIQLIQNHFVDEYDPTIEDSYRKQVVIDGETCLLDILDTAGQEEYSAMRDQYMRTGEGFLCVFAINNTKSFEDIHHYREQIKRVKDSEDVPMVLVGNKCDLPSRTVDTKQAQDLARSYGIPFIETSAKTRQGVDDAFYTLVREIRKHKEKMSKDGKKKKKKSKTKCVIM
In short: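 Luminescence from lytic Nano-Glo HiBiT detection with LgBiT read KRAS G12V levels after 24 h compound exposure. Dilutions were 10-point, 3-fold, from a 0.3 mM DMSO stock. Degradation activity was normalised to cells given 0.1% DMSO alone.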

KRAS = target: T2, KRAS (Homo sapiens, UniProt P01116); experiment: KRASamp MSD assay; settings: KE39 (KRAS amplified) cells, treated with test compounds for 24 hr, MSD readout of KRAS degradation
T2 construct: endogenous in cells; host or cells: KE39 (KRAS amplified) cells
T2 sequence (P01116 1-188 isoform P01116-2): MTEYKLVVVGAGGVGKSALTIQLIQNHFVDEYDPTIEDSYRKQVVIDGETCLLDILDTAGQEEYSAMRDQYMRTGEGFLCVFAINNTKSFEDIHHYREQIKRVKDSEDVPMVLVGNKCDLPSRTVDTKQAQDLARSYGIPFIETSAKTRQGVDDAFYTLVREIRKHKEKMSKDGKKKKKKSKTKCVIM
Protocol: KE39 (KRAS amplified) cells were cultured in RPMI 1640 medium (Gibco, 11875093), seeded into 96 well plate and treated with test compounds for 24 hr. The cells were washed with PBS and lysed in plate for 1 hr at 4° C. with agitation in RIPA buffer (Cat No. BP-115D) supplemented with protease and phosphatase inhibitor cocktail. The lysates were loaded into MSD plate coated with KRAS capture antibody (LSBio, C175665, 1:1000) for 1 h at RT with agitation. The plate was then washed three times with TBST and incubated with KRAS detection antibody (Abcam, Ab275876. 1:2000) for 1 h at RT. After washing three times with TBST, the plate was incubated with secondary detection antibody GAR (1:500) for 1 hr at RT followed with 3×TBST washing. 2×MSD reading buffer was added into individual wells and the plate was finally read by MSD reader (MSD, SQ 120 MM). The recombinant WT KRAS protein was used for standard curve generation and protein quantification. The degradation activity was calculated using the following formula: […]
DC50 was calculated by fitting the curve using GraphPad Prism v8.0.2 (analysis 263): […]

KRAS G12D = target: T3, KRAS G12D (Homo sapiens, UniProt P01116, G12D); experiment: KRAS G12D HiBit assay; settings: AsPc-1-KRAS (G12D)-HiBit-KI cell, compound treatment for 24 hours; for DC50: absolute DC50
T3 construct: AsPc-1-KRAS (G12D)-HiBit-KI cell (Pharmaron); host or cells: AsPc-1-KRAS (G12D)-HiBit-KI cells (HiBiT knock-in at the endogenous KRAS locus)
T3 sequence (P01116 1-188 isoform P01116-2 G12D): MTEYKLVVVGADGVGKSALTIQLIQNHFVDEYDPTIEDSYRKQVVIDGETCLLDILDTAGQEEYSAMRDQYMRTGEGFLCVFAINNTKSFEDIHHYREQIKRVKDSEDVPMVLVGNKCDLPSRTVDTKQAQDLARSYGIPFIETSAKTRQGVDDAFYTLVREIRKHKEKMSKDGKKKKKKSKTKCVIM
In short: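 HiBiT luminescence, detected by adding lytic buffer, substrate and LgBiT protein, served as the KRAS G12D read-out. Compounds, serially diluted 3-fold over 10 points from 0.3 mM DMSO stock, were on cells for 24 h; percent inhibition normalized to cells given 0.1% DMSO only.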

| DC50 (KRAS G12V) | DC50 (KRAS) | DC50 (KRAS G12D; class symbols) | Dmax (KRAS G12D; class symbols) | DC50 (KRAS G12D; numeric bounds given in place of class symbols) | Compound | Average Dmax (KRAS G12D; class symbols) |
| --- | --- | --- | --- | --- | --- | --- |
| < 10 nM | < 1 nM | < 100 nM |  |  | CCc1c(F)ccc2cc(O)cc(-c3ncc4c(N5CCC[C@@](C)(O)C5)nc(OCC5(CN6CCN(CC7CCN(c8ccc9c(c8)n(C)c(=O)n9C8CCC(=O)NC8=O)CC7)CC6)CC5)nc4c3F)c12 (stereo partly drawn) [Compound 34] |  |
| > 100 nM | ≥ 10 nM | > 300 nM |  |  | C#Cc1c(F)ccc2cccc(-c3ncc4c(N5CCC[C@@](C)(O)C5)nc(OCC5(CN6CCC7(CC6)CN(c6ccc8c(c6)n(C)c(=O)n8C6CCC(=O)NC6=O)C7)CC5)nc4c3F)c12 (stereo partly drawn) [Compound 40] |  |
| < 10 nM | 1 to 10 nM | < 100 nM |  |  | C#Cc1c(F)ccc2cc(O)cc(-c3ncc4c(N5CCC[C@@](C)(O)C5)nc(OCC5(CN6CCN(CC7CCN(c8ccc9c(c8)C(=O)N(C8CCC(=O)NC8=O)C9=O)CC7)CC6)CC5)nc4c3F)c12 (stereo partly drawn) [Compound 50] |  |
| < 10 nM | ≥ 10 nM | < 100 nM |  |  | C#Cc1c(F)ccc2cc(O)cc(-c3ncc4c(N5CCC[C@@](C)(O)C5)nc(OCC5(CN6CCC7(CC6)CCN(c6ccc8c(c6)n(C)c(=O)n8C6CCC(=O)NC6=O)CC7)CC5)nc4c3F)c12 (stereo partly drawn) [Compound 52] |  |
| > 100 nM | ≥ 10 nM | < 100 nM |  |  | C#Cc1c(F)ccc2cccc(-c3ncc4c(N5CCC[C@@](C)(O)C5)nc(OCC5(CN6CCN(CC7CCN(c8ccc9c(c8)C(=O)N(C8CCC(=O)NC8=O)C9=O)CC7)CC6)CC5)nc4c3F)c12 (stereo partly drawn) [Compound 55] |  |
| < 10 nM | < 1 nM | < 100 nM |  |  | C#Cc1c(F)ccc2cc(O)cc(-c3ncc4c(N5CCC[C@@](C)(O)C5)nc(OCC5(CN6CCC7(CC6)CC(N6CCN(c8ccc9c(c8)n(C)c(=O)n9C8CCC(=O)NC8=O)CC6)C7)CC5)nc4c3F)c12 (stereo partly drawn) [Compound 56] |  |
| < 10 nM | ≥ 10 nM | < 100 nM |  |  | C#Cc1c(F)ccc2cc(O)cc(-c3ncc4c(N5CCC[C@@](C)(O)C5)nc(OCC5(CN6CCC(N7CCC(c8ccc9c(C%10CCC(=O)NC%10=O)nn(C)c9c8)CC7)CC6)CC5)nc4c3F)c12 (stereo partly drawn) [Compound 58] |  |
| < 10 nM | < 1 nM | < 100 nM |  |  | C#Cc1c(F)ccc2cc(O)cc(-c3ncc4c(N5CCC[C@@](C)(O)C5)nc(OCC5(CN6CCC7(CC6)CC(N6CCC(c8cccc9c8n(C)c(=O)n9C8CCC(=O)NC8=O)CC6)C7)CC5)nc4c3F)c12 (stereo partly drawn) [Compound 64] |  |
| < 10 nM | 1 to 10 nM | < 100 nM |  |  | C#Cc1c(F)ccc2cc(O)cc(-c3ncc4c(N5CCC[C@@](C)(O)C5)nc(OCC5(CN6CCC7(CC6)CCN(c6cccc8c6n(C)c(=O)n8C6CCC(=O)NC6=O)CC7)CC5)nc4c3F)c12 (stereo partly drawn) [Compound 67] |  |
| < 10 nM |  | < 100 nM |  |  | CCc1c(F)ccc2cc(O)cc(-c3ncc4c(N5CCC[C@@](C)(O)C5)nc(OC[C@@]56CCCN5[C@H](CN(C)C(=O)c5ccc(CN7CCC(c8ccc9c(c8)n(C)c(=O)n9C8CCC(=O)NC8=O)CC7)cc5)CC6)nc4c3F)c12 (stereo partly drawn) [Compound 503, 4-((4-(1-(2,6-dioxopiperidin-3-yl)-3-methyl-2-oxo-2,3-dihydro-1H-benzo[d]imidazol-5-yl)piperidin-1-yl)methyl)-N-(((3S,7aS)-7a-(((7-(8-ethyl-7-fluoro-3-hydroxynaphthalen-1-yl)-8-fluoro-4-((R)-3-hydroxy-3-methylpiperidin-1-yl)pyrido[4,3-d]pyrimidin-2-yl)oxy)methyl)hexahydro-1H-pyrrolizin-3-yl)methyl)-N-methylbenzamide] |  |

Continued, compound first:

| Compound | DC50 (KRAS G12V) | DC50 (KRAS) | DC50 (KRAS G12D; class symbols) | Dmax (KRAS G12D; class symbols) | DC50 (KRAS G12D; numeric bounds given in place of class symbols) | Average Dmax (KRAS G12D; class symbols) |
| --- | --- | --- | --- | --- | --- | --- |
| CCc1c(F)ccc2cc(O)cc(-c3ncc4c(N5CCC[C@@](C)(O)C5)nc(OC[C@@]56CCCN5[C@H](COC(=O)N5CCC(CN7CCC(c8ccc9c(c8)n(C)c(=O)n9C8CCC(=O)NC8=O)CC7)CC5)CC6)nc4c3F)c12 (stereo partly drawn) [Compound 1, [(3S,8S)-8-[[7-(8-Ethyl-7-fluoro-3-hydroxy-1-naphthyl)-8-fluoro-4-[(3R)-3-hydroxy-3-methyl-1-piperidyl]pyrido[4,3-d]pyrimidin-2-yl]oxymethyl]-1,2,3,5,6,7-hexahydropyrrolizin-3-yl]methyl 4-[[4-[1-(2,6-dioxo-3-piperidyl)-3-methyl-2-oxo-benzimidazol-5-yl]-1-piperidyl]methyl]piperidine-1-carboxylate] | < 10 nM | < 1 nM | < 100 nM |  |  | A (Dmax greater than 50%) |
| CCc1c(F)ccc2cc(O)cc(-c3ncc4c(N5CCC[C@@](C)(O)C5)nc(OC[C@@]56CCCN5[C@H](COC(=O)N5CCC(OCCCc7cccc8c7n(C)c(=O)n8C7CCC(=O)NC7=O)CC5)CC6)nc4c3F)c12 (stereo partly drawn) [Compound 2, [(3S,8S)-8-[[7-(8-Ethyl-7-fluoro-3-hydroxy-1-naphthyl)-8-fluoro-4-[(3R)-3-hydroxy-3-methyl-1-piperidyl]pyrido[4,3-d]pyrimidin-2-yl]oxymethyl]-1,2,3,5,6,7-hexahydropyrrolizin-3-yl]methyl4-[3-[1-(2,6-dioxo-3-piperidyl)-3-methyl-2-oxo-benzimidazol-4-yl]propoxy]piperidine-1-carboxylate] | < 10 nM | < 1 nM | < 100 nM | > 50% |  |  |
| C#Cc1c(F)ccc2cc(O)cc(-c3ncc4c(N5CCC[C@@](C)(O)C5)nc(OC[C@@]56CCCN5[C@H](COC(=O)N5CCC(CN7CCC(c8ccc9c(c8)n(C)c(=O)n9C8CCC(=O)NC8=O)CC7)CC5)CC6)nc4c3F)c12 (stereo partly drawn) [Compound 4, [(3S,8S)-8-[[7-(8-Ethynyl-7-fluoro-3-hydroxy-1-naphthyl)-8-fluoro-4-[(3R)-3-hydroxy-3-methyl-1-piperidyl]pyrido[4,3-d]pyrimidin-2-yl]oxymethyl]-1,2,3,5,6,7-hexahydropyrrolizin-3-yl]methyl4-[[4-[1-(2,6-dioxo-3-piperidyl)-3-methyl-2-oxo-benzimidazol-5-yl]-1-piperidyl]methyl]piperidine-1-carboxylate] | < 10 nM | < 1 nM | < 100 nM |  |  | A (Dmax greater than 50%) |
| C#Cc1c(F)ccc2cc(O)cc(-c3ccc4c(N5CCC[C@@](C)(O)C5)nc(OCC5(CN6CCN(CC7CCN(c8ccc9c(c8)n(C)c(=O)n9C8CCC(=O)NC8=O)CC7)CC6)CC5)nc4c3F)c12 (stereo partly drawn) [Compound 11] | < 10 nM | 1 to 10 nM | > 300 nM |  |  |  |
| C#Cc1c(F)ccc2cc(O)cc(-c3ccc4c(N5CCC[C@@](C)(O)C5)nc(OCC5(CN6CCC(CN7CCC(c8ccc9c(c8)n(C)c(=O)n9C8CCC(=O)NC8=O)CC7)CC6)CC5)nc4c3F)c12 (stereo partly drawn) [Compound 13] | < 10 nM | < 1 nM | < 100 nM |  |  |  |
| C#Cc1c(F)ccc2cc(O)cc(-c3ncc4c(N5CCC[C@@](C)(O)C5)nc(OCC5(CN6CCN(CC7CCN(c8ccc9c(c8)n(C)c(=O)n9C8CCC(=O)NC8=O)CC7)CC6)CC5)nc4c3F)c12 (stereo partly drawn) [Compound 14, 3-[5-[4-[[4-[[1-[[7-(8-Ethynyl-7-fluoro-3-hydroxy-1-naphthyl)-8-fluoro-4-[(3R)-3-hydroxy-3-methyl-1-piperidyl]pyrido[4,3-d]pyrimidin-2-yl]oxymethyl]cyclopropyl]methyl]piperazin-1-yl]methyl]-1-piperidyl]-3-methyl-2-oxo-benzimidazol-1-yl]piperidine-2,6-dione] | < 10 nM | < 1 nM | < 100 nM | > 50% |  |  |
| C#Cc1c(F)ccc2cc(O)cc(-c3ncc4c(N5CCCCC5)nc(OCC5(CN6CCN(CC7CCN(c8ccc9c(c8)n(C)c(=O)n9C8CCC(=O)NC8=O)CC7)CC6)CC5)nc4c3F)c12 (stereo not drawn) [Compound 15] | > 100 nM | ≥ 10 nM | 100 to 300 nM | > 50% |  |  |
| C#Cc1c(F)ccc2cccc(-c3ncc4c(N5CCC[C@@](C)(O)C5)nc(OCC5(CN6CC7(C6)CN(c6ccc8c(c6)n(C)c(=O)n8C6CCC(=O)NC6=O)C7)CC5)nc4c3F)c12 (stereo partly drawn) [Compound 31] | > 100 nM | ≥ 10 nM | > 300 nM |  |  |  |
| C#Cc1c(F)ccc2cc(O)cc(-c3ncc4c(N5CCC[C@@](C)(O)C5)nc(OC[C@@]56CCCN5[C@H](COC(=O)N5CCC(C7CCN(c8ccc9c(c8)n(C)c(=O)n9C8CCC(=O)NC8=O)CC7)CC5)CC6)nc4c3F)c12 (stereo partly drawn) [Compound 32] |  | 1 to 10 nM |  |  | > 100 nM |  |
